Data as given in ChEMBL document CHEMBL3351667, “A chemical tuned strategy to develop novel irreversible EGFR-TK inhibitors with improved safety and pharmacokinetic profiles” (J Med Chem, 2014).

Tests used:
[1] = system: NCI-H1975; experiment: cells; type: functional, cell-based; conditions: Homo sapiens, NCI-H1975, 48 h
Description: Antiproliferative activity against human NCI-H1975 cells after 48 hrs by Celltiter-Glo assay

[2] = target: Epidermal growth factor receptor (Homo sapiens, UniProt P00533, T790M); type: protein assay
[3] = target: Receptor tyrosine-protein kinase erbB-2 (Homo sapiens, UniProt P04626); experiment: Inhibition of wild type HER2 (unknown origin) incubated for 5 mins by HTRF assay
Receptor tyrosine-protein kinase erbB-2, sequence (P04626 whole entry): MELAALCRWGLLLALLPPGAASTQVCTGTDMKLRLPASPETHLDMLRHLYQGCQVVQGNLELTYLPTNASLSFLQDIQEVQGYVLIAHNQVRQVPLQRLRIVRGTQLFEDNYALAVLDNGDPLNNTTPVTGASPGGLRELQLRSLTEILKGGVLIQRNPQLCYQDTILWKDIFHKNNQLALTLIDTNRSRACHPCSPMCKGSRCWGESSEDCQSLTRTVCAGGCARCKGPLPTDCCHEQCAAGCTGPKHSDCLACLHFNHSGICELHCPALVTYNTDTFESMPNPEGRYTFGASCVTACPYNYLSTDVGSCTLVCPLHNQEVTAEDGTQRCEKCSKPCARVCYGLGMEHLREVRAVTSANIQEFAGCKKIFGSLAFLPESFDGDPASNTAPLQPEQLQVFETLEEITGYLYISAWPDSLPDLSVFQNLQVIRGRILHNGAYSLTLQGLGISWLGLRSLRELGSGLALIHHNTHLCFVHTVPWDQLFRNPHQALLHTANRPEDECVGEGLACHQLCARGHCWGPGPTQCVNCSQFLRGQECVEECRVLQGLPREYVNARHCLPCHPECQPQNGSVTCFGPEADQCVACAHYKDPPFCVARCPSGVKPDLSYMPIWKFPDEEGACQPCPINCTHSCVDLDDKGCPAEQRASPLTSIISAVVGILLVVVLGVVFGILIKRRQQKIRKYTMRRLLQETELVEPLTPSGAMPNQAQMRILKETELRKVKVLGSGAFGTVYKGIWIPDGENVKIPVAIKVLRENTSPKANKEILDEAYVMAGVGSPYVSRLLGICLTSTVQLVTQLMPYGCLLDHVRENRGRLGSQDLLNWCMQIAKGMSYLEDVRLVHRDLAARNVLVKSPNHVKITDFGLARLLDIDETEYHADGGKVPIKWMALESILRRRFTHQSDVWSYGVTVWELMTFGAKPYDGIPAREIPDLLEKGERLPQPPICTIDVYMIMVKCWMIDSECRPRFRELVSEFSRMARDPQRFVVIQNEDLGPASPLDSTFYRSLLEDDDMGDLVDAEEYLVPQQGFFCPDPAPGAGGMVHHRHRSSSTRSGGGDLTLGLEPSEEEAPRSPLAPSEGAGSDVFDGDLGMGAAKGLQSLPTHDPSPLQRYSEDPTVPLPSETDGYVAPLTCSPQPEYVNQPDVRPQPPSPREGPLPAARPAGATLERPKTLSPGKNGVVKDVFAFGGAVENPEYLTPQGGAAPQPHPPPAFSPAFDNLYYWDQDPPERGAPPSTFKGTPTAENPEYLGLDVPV

[4] = system: A-431; experiment: cells; type: functional, cell-based; conditions: Homo sapiens, A-431, 48 h
Description: Antiproliferative activity against human A431 cells after 48 hrs by Celltiter-Glo assay

[5] = target: Epidermal growth factor receptor (Homo sapiens, UniProt P00533);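 also: inhibition of wild-type EGFR read out by HTRF, with a 5 min incubation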
Epidermal growth factor receptor (Homo sapiens, UniProt P00533), sequence (P00533 whole entry): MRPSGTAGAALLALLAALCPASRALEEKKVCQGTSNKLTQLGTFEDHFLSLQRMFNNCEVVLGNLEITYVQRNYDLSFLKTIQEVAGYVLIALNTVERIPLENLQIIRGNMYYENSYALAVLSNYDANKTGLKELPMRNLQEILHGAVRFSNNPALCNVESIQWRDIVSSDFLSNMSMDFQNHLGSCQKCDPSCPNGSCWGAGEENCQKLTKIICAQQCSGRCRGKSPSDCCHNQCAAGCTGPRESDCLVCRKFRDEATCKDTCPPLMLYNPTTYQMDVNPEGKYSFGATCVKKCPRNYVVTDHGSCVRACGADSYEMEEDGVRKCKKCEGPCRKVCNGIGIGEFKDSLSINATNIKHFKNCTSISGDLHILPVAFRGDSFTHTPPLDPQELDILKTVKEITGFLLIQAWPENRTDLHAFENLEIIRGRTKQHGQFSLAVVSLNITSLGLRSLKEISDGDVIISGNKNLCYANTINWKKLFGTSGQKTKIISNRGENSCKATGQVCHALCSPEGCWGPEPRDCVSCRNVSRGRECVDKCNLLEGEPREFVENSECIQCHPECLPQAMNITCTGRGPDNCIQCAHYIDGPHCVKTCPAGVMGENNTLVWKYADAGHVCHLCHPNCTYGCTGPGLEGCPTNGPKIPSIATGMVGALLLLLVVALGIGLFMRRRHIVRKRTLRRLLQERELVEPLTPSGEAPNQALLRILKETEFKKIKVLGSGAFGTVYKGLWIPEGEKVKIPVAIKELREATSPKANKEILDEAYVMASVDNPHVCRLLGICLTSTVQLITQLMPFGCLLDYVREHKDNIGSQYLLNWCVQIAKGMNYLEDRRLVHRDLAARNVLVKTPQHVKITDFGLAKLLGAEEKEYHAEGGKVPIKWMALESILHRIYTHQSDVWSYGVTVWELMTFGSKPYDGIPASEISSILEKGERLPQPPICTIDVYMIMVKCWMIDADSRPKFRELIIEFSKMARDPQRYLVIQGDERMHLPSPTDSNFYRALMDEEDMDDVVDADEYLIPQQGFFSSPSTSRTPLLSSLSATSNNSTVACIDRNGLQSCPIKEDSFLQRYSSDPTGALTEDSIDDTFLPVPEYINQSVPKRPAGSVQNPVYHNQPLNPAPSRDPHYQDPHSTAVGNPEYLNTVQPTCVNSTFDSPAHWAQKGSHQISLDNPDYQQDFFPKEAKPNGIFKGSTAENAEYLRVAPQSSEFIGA
Description: Inhibition of wild type EGFR (unknown origin) incubated for 5 mins by HTRF assay

[6] = system: SW-620; experiment: Growth inhibition of human SW620 cells at 5 uM; type: functional; conditions: read-out: GI
[7] = target: T1, hERG (KCNH2) (Homo sapiens, UniProt Q12809); experiment: Inhibition of human ERG assessed as reduction in channel currents at 1 uM
T1 sequence (Q12809 whole entry): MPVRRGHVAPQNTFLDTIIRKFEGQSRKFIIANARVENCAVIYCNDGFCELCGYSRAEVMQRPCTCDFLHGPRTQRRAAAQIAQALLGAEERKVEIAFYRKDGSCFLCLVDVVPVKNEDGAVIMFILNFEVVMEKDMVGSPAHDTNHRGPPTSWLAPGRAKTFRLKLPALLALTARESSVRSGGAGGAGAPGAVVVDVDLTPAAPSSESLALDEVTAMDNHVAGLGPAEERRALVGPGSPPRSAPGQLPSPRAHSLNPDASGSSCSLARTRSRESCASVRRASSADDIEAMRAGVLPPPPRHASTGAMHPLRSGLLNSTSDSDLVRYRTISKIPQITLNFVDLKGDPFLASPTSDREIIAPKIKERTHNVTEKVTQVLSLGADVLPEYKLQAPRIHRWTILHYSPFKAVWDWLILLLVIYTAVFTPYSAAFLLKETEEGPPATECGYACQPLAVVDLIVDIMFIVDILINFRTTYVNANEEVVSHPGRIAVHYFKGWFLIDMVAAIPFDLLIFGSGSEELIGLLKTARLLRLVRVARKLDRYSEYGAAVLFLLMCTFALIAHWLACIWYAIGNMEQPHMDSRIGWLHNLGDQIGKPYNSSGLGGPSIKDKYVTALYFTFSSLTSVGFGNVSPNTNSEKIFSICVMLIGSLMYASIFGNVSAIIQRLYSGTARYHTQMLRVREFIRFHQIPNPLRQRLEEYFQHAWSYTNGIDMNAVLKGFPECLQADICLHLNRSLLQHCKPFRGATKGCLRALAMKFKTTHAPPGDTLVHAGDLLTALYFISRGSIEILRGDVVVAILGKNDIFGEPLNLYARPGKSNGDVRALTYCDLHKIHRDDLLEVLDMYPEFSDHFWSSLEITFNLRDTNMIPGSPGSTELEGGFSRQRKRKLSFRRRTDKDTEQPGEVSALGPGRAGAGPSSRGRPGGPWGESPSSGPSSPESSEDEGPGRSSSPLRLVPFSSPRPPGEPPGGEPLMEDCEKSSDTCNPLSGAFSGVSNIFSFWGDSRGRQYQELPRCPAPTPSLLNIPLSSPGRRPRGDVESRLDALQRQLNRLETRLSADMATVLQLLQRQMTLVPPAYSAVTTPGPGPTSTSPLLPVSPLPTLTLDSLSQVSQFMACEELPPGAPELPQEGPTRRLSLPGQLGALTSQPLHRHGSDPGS

[8] = target: T1, hERG (KCNH2); experiment: Inhibition of human ERG assessed as reduction in channel currents at 10 uM
[9] = Intrinsic clearance in rat liver microsomes assessed per mg protein at 1 uM in presence of NADPH after 0.5 to 30 mins by LC/MS/MS method; type: ADME; conditions: read-out: CLH
[10] = Intrinsic clearance in mouse liver microsomes assessed per mg protein at 1 uM in presence of NADPH after 0.5 to 30 mins by LC/MS/MS method; type: ADME; conditions: read-out: CLH
[11] = Intrinsic clearance in monkey liver microsomes assessed per mg protein at 1 uM in presence of NADPH after 0.5 to 30 mins by LC/MS/MS method; type: ADME, Macaca mulatta; conditions: rhesus monkey, read-out: CLH
[12] = Intrinsic clearance in dog liver microsomes assessed per mg protein at 1 uM in presence of NADPH after 0.5 to 30 mins by LC/MS/MS method; type: ADME, Canis lupus familiaris; conditions: read-out: CLH
[13] = Intrinsic clearance in human liver microsomes assessed per mg protein at 1 uM in presence of NADPH after 0.5 to 30 mins by LC/MS/MS method; type: ADME; conditions: read-out: CLH

Epidermal growth factor receptor (Homo sapiens, UniProt P00533, T790M), sequence (P00533 25-1210 T790M limits assumed): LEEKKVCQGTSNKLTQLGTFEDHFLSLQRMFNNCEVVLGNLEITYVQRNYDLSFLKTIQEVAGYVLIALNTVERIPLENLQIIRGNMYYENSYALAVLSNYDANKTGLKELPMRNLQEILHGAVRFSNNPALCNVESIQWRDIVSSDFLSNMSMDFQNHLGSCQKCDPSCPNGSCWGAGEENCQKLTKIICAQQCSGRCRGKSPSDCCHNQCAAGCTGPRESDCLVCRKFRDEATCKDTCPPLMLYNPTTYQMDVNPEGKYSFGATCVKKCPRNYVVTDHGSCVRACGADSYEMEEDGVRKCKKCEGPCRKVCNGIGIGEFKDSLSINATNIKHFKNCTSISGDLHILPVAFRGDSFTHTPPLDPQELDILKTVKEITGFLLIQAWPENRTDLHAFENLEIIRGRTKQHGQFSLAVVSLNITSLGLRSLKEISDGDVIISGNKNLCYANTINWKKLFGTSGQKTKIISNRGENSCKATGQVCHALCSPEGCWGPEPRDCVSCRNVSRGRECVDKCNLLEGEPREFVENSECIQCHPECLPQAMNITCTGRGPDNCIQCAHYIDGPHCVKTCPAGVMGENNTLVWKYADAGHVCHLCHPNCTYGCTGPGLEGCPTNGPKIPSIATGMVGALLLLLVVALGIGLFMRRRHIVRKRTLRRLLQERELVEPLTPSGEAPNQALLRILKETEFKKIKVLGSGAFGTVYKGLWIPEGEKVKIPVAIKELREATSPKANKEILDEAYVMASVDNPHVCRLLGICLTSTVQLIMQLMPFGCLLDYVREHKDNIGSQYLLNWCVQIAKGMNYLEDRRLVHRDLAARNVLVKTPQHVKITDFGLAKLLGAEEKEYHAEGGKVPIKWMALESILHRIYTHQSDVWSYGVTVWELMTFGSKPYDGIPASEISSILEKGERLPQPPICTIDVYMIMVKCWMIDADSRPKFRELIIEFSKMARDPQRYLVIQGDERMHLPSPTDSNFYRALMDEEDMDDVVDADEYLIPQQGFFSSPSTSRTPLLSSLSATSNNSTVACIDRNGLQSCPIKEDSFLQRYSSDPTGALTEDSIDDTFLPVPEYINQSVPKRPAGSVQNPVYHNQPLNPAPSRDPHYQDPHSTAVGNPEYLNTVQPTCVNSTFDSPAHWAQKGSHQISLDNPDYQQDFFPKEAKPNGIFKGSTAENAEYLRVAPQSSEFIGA

Compound | IC50 [1] | IC50 [2] | IC50 [4] | IC50 [5] | also measured
COc1cc2ncnc(Nc3ccc(F)c(Cl)c3)c2cc1NC(=O)/C(F)=C/CN1CCOCC1 | 2020 nM | 59.8 nM | 2630 nM | – | IC50 [3]: 1540 nM
COc1cc2ncnc(Nc3cccc(Br)c3)c2cc1NC(=O)/C(F)=C/CN(C)C | 3300 nM | 8.3 nM | 2100 nM | 2.6 nM | –
COc1cccc2c1C(=O)c1c(O)c3c(c(O)c1C2=O)C[C@@](O)(C(=O)CO)C[C@@H]3O[C@H]1C[C@H](N)[C@H](O)[C@H](C)O1 [DOXORUBICIN] | – | – | – | – | inhibition of growth at 5 µM [6]: 79.8%
COc1cc2ncnc(Nc3ccc(OCc4cccc(F)c4)c(Cl)c3)c2cc1NC(=O)/C(F)=C\CN(C)C | 2000 nM | – | 1690 nM | 1.3 nM | –
CCOc1cc2ncnc(Nc3ccc(OCC4CC4)c(Cl)c3)c2cc1NC(=O)/C(F)=C\CN(C)C | 2980 nM | – | 1340 nM | 11.2 nM | –
CCOc1cc2ncnc(Nc3ccc(Oc4ccc(C)nc4)c(Cl)c3)c2cc1NC(=O)/C(F)=C/CN(C)C | 2490 nM | 7.1 nM | 1670 nM | 4.5 nM | –
CCOc1cc2ncnc(Nc3ccc(Oc4ccc(C)nc4)c(Cl)c3)c2cc1NC(=O)/C(F)=C/CN1CCCCC1 | 3600 nM | 37.9 nM | 3490 nM | 12.9 nM | –
O=C(Nc1cc2c(Nc3ccc(F)c(Cl)c3)ncnc2cc1O[C@H]1CCOC1)/C(F)=C/CN1CCOCC1 | 4370 nM | – | 11500 nM | – | IC50 [3]: 1570 nM; inhibition at 1 µM [7]: 0.94%; inhibition at 10 µM [8]: 11.1%
COc1cc2ncnc(Nc3ccc(F)c(Cl)c3)c2cc1NC(=O)/C(F)=C\CN1CCOCC1 | 1110 nM | – | 830 nM | – | –
CN(C)C/C=C(/F)C(=O)Nc1cc2c(Nc3ccc(F)c(Cl)c3)ncnc2cc1O[C@H]1CCOC1 | 1530 nM | 25.8 nM | 3060 nM | – | IC50 [3]: 97.1 nM; inhibition at 1 µM [7]: 6.37%; inhibition at 10 µM [8]: 39.5%
O=C(Nc1cc2c(Nc3ccc(F)c(Cl)c3)ncnc2cc1O[C@H]1CCOC1)/C(F)=C/CN1CCCCC1 | 290 nM | 16.4 nM | 1560 nM | 2.6 nM | –
COc1cc2ncnc(Nc3ccc(OCc4cccc(F)c4)c(Cl)c3)c2cc1NC(=O)/C(F)=C/CN(C)C | 2060 nM | 2.1 nM | 4020 nM | 1.56 nM | –
O=C(Nc1cc2c(Nc3ccc(F)c(Cl)c3)ncnc2cc1O[C@H]1CCOC1)/C(F)=C\CN1CCCCC1 | 710 nM | – | 1800 nM | 2.55 nM | –
CCOc1cc2ncnc(Nc3ccc(OCc4ccccn4)c(Cl)c3)c2cc1NC(=O)/C(F)=C\CN(C)C | 1130 nM | – | – | – | –
CCOc1cc2ncnc(Nc3ccc(Oc4ccc(C)nc4)c(Cl)c3)c2cc1NC(=O)/C(F)=C\CN(C)C | 2940 nM | – | 5900 nM | 9.5 nM | –
O=C(Nc1cc2c(Nc3ccc(F)c(Cl)c3)ncnc2cc1O[C@H]1CCOC1)/C(F)=C\CN1CCOCC1 | 3010 nM | – | 10900 nM | – | –
CCOc1cc2ncnc(Nc3ccc(Oc4ccc(C)nc4)c(Cl)c3)c2cc1NC(=O)/C(F)=C\CN1CCCCC1 | 6420 nM | – | 24800 nM | 39.2 nM | –
COc1cc2ncnc(Nc3cccc(Br)c3)c2cc1NC(=O)/C(F)=C\CN(C)C | 4100 nM | – | 1200 nM | 5 nM | –
CCOc1cc2ncnc(Nc3ccc(OCC4CC4)c(Cl)c3)c2cc1NC(=O)/C(F)=C/CN(C)C | 1190 nM | 3.5 nM | 750 nM | 3.6 nM | –
C=CC(=O)Nc1cc2c(Nc3ccc(F)c(Cl)c3)ncnc2cc1OCCCN1CCOCC1 [CANERTINIB] | – | – | – | – | microsomal CLint at 1 µM [9]: 105 µL/min/mg; microsomal CLint at 1 µM [10]: 5 µL/min/mg; microsomal CLint at 1 µM [11]: 221 µL/min/mg; microsomal CLint at 1 µM [12]: 26 µL/min/mg; microsomal CLint at 1 µM [13]: 50 µL/min/mg
